The source of these data is patent publication US20110033906A1 (priority 2009, published 2011).

Data set [1] deals with cellulase surface-displaying yeast (arming yeast). The following applies: 120 hours after the start of fermentation.

Regarding “1-ethyl-3-methylimidazolium diethylphosphate [[Emim][DEP]]”, the “ethanol yield relative to theoretical yield” value in data set [1] is “about 56%”. In addition, the ethanol obtained in data set [1] (crystalline cellulose (Avicel) pretreated with [Emim][DEP], arming yeast, ionic liquid present) is 1.43 g/L.

In the case of `CCn1cc[n+](C)c1` [[Emim][Cl], 1-ethyl-3-methylimidazolium chloride], in the data set with yeast (MT 8-1), the “yeast survivability (live cell counts)” value is “not greatly affected”.
